According to patent US20210198277A1, “AMINE-SUBSTITUTED ARYL OR HETEROARYL COMPOUNDS” (Epizyme, Inc., priority 2016, published 2021):

Experiments:
[1] = molecular target: T1, human EHMT2 913-1193 (Homo sapiens, UniProt Q96KQ7); experiment: EHMT2 enzyme assay on histone peptide substrate (EHMT2 PEP); type: biochemical; details: Table VI; read-out: EHMT2 PEP IC50
T1 construct: recombinant purified human EHMT2 913-1193, Viva; purchased Viva
T1 sequence (Q96KQ7 913-1193): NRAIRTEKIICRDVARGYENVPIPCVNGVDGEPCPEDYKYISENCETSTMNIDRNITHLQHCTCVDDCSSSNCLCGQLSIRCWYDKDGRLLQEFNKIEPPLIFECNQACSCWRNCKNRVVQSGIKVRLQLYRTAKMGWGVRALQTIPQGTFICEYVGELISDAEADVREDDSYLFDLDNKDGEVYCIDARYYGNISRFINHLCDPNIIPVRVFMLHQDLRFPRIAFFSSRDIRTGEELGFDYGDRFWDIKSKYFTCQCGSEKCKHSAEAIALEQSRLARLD
How it was run: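 Radiometric methyltransferase read-out: ^3H-methyl transfer from ^3H-SAM onto biotinylated histone peptide, captured on streptavidin Flashplates after 60 min reaction at room temperature. Enzyme 0.031 nM, preincubated 30 min with inhibitor; buffer 20 mM Bicine pH 7.5 with 1 mM TCEP; top compound concentration 50 μM final, 2% DMSO.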

[2] = molecular target: T2, EHMT1 (Homo sapiens, UniProt Q9H9B1); experiment: EHMT1 enzyme assay on peptide substrate (EHMT1 PEP); type: biochemical; details: Table VI; read-out: EHMT1 PEP IC50
T2 sequence (Q9H9B1 1-1298): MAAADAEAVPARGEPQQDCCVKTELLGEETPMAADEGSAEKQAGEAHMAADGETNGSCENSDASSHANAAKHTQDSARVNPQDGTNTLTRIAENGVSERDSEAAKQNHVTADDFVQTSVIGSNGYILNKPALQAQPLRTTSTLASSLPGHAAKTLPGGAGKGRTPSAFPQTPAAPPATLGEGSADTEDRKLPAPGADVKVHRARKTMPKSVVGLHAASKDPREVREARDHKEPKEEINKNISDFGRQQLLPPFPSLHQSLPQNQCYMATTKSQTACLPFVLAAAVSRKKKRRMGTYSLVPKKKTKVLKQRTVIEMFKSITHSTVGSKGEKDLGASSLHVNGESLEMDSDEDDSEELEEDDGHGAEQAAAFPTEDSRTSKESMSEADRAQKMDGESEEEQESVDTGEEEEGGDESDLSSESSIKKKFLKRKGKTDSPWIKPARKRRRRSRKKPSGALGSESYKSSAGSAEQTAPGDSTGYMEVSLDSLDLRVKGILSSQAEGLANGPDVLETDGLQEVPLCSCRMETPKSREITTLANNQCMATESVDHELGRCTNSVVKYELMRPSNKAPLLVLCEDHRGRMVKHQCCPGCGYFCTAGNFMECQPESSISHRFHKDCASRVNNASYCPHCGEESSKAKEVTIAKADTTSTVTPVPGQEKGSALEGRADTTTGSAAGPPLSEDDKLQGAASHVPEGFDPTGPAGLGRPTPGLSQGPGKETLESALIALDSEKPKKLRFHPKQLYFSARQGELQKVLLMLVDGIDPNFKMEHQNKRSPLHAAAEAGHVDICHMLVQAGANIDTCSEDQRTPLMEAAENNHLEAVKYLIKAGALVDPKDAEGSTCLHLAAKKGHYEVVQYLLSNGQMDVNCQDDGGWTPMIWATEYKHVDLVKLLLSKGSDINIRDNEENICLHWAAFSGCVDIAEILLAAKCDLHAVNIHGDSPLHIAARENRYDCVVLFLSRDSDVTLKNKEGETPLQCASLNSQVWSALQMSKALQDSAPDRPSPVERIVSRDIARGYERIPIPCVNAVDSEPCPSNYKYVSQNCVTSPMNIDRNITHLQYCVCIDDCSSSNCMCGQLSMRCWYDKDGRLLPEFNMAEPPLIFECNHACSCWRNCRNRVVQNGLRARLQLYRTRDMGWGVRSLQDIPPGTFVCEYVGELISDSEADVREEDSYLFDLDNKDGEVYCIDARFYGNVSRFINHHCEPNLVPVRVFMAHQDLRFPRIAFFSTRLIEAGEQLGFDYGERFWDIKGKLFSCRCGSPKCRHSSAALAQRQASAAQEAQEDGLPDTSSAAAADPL

**Q.** With `CNc1cc(C2CCCCC2)c2cc(OC)c(OCCCN3CCCC3)cc2n1` [Compound 816] as the compound, how does the IC50 [1] read?
**A.** Its IC50 is < 100 nM.

**Q.** What about the IC50 [2] of the same compound?
**A.** The IC50 was < 100 nM.

**Q.** Which IC50 [1] does the source give for `CNc1cc(C(C)C)c2cc(OC)c(OCCCN3CCCC3)cc2n1` [Compound 817] here?
**A.** The IC50 was < 100 nM.

**Q.** What about the IC50 [2] of the same compound?
**A.** The IC50 was < 100 nM.

**Q.** Which results are given for `COc1cc2c(C3CCOCC3)cc(=O)[nH]c2cc1OCCCN1CCCC1` [Compound 822]?
**A.** IC50 [1]: > 10000 nM; IC50 [2]: > 10000 nM

**Q.** `CNc1cc(CC2CCOCC2)c2cc(OC)c(OCCCN3CCCC3)cc2n1` [Compound 823] was tested. Which IC50 [1] did it give?
**A.** Its IC50 is < 100 nM.

**Q.** What about the IC50 [2] of the same compound?
**A.** The IC50 was < 100 nM.

**Q.** What does the source list for `COc1cc2c(C3CCOCC3)cc(N3CCCCC3)nc2cc1OCCCN1CCCC1` [Compound 824]?
**A.** IC50 [1]: 100 to 1000 nM; IC50 [2]: 100 to 1000 nM

**Q.** Which results are given for `COc1cc2c(C3CCOCC3)cc(N(C)C)nc2cc1OCCCN1CCCC1` [Compound 825]?
**A.** IC50 [1]: 100 to 1000 nM; IC50 [2]: 100 to 1000 nM

**Q.** Which IC50 [1] does the source give for `CNc1cc(C2CCN(CCC(F)(F)F)CC2)c2cc(OC)c(OCCCN3CCCC3)cc2n1` [Compound 832] here?
**A.** The IC50 was < 100 nM.

**Q.** And the IC50 [2]?
**A.** The IC50 was < 100 nM.

**Q.** Which IC50 [1] does the source give for `CNc1cc(C2CCN(CC(F)(F)F)CC2)c2cc(OC)c(OCCCN3CCCC3)cc2n1` [Compound 833] here?
**A.** Its IC50 is < 100 nM.

**Q.** What about the IC50 [2] of the same compound?
**A.** The IC50 was < 100 nM.

**Q.** Which results are given for `COc1cc2c(C3CCN(C(C)=O)CC3)cc(C)nc2cc1OCCCN1CCCC1` [Compound 834]?
**A.** IC50 [1]: 100 to 1000 nM; IC50 [2]: 100 to 1000 nM

**Q.** With `CCS(=O)(=O)N1CCC(c2cc(C)nc3cc(OCCCN4CCCC4)c(OC)cc23)CC1` [Compound 836] as the compound, how does the IC50 [1] read?
**A.** The IC50 was 100 to 1000 nM.

**Q.** What about the IC50 [2] of the same compound?
**A.** The IC50 was 100 to 1000 nM.

**Q.** How did the IC50 [1] turn out when `COc1cc2c(C3CCN(CC(F)(F)F)CC3)cc(C)nc2cc1OCCCN1CCCC1` [Compound 837] was run?
**A.** The IC50 was 100 to 1000 nM.

**Q.** What about the IC50 [2] of the same compound?
**A.** Its IC50 is 100 to 1000 nM.

**Q.** `COc1cc2c(C3CCN(CCC(F)(F)F)CC3)cc(C)nc2cc1OCCCN1CCCC1` [Compound 838] was tested. Which IC50 [1] did it give?
**A.** Its IC50 is < 100 nM.

**Q.** What about the IC50 [2] of the same compound?
**A.** The IC50 was < 100 nM.

**Q.** What does the source list for `CNc1cc(C2CCN(CCOC)CC2)c2cc(OC)c(OCCCN3CCCC3)cc2n1` [Compound 839]?
**A.** IC50 [1]: < 100 nM; IC50 [2]: < 100 nM

**Q.** For `COc1cc2c(C3CCN(CC(F)(F)F)CC3)nc(C)nc2cc1OCCCN1CCCC1` [Compound 841], which IC50 [1] is on record?
**A.** Its IC50 is > 10000 nM.

**Q.** And the IC50 [2]?
**A.** The IC50 was > 10000 nM.

**Q.** With `CNc1cc(C)nc(Nc2ccc(OC)c(C#CC3CCNC3)c2)n1` (centres unmarked) [Compound 845] as the compound, how does the IC50 [1] read?
**A.** The IC50 was 100 to 1000 nM.

**Q.** And the IC50 [2]?
**A.** The IC50 was < 100 nM.

**Q.** How did the IC50 [1] turn out when `CNc1cc(C)nc(Nc2ccc(OC)c(C#CC3CCCN3)c2)n1` (centres unmarked) [Compound 846] was run?
**A.** The IC50 was < 100 nM.

**Q.** What about the IC50 [2] of the same compound?
**A.** The IC50 was < 100 nM.

**Q.** Which results are given for `CNc1cc(C)nc(Nc2ccc(OC)c(C#CC3CCN(C)C3)c2)n1` (centres unmarked) [Compound 847]?
**A.** IC50 [1]: 100 to 1000 nM; IC50 [2]: < 100 nM

**Q.** For `CNc1cc(C)nc(Nc2ccc(OC)c(C#CC3CCCN3C)c2)n1` (centres unmarked) [Compound 848], which IC50 [1] is on record?
**A.** The IC50 was < 100 nM.

**Q.** What about the IC50 [2] of the same compound?
**A.** The IC50 was < 100 nM.

**Q.** How did the IC50 [1] turn out when `CNC(=O)c1cc(C)nc(Nc2ccc(OC)c(OCCCN3CCCC3)c2)n1` [Compound 854] was run?
**A.** The IC50 was > 10000 nM.

**Q.** And the IC50 [2]?
**A.** The IC50 was > 10000 nM.

**Q.** Which IC50 [1] does the source give for `CNc1cc(C)c2cc(OC)c(C#CCN3CCCC3)cc2n1` [Compound 859] here?
**A.** The IC50 was < 100 nM.

**Q.** And the IC50 [2]?
**A.** The IC50 was < 100 nM.

**Q.** Which results are given for `CNc1cc(C)nc(Nc2ccc(OC)c(C#CCN3CCN(C)CC3)c2)n1` [Compound 860]?
**A.** IC50 [1]: > 10000 nM; IC50 [2]: > 10000 nM

**Q.** `COc1cc2c(C3CCN([C@@H]4CCOC4)CC3)cc(C)nc2cc1OCCCN1CCCC1` [Compound 863] was tested. Which IC50 [1] did it give?
**A.** Its IC50 is < 100 nM.

**Q.** What about the IC50 [2] of the same compound?
**A.** The IC50 was < 100 nM.
